Laboratory results as given in ChEMBL document CHEMBL1914432, “Discovery of highly potent small molecule Hepatitis C Virus entry inhibitors” (Bioorg Med Chem Lett, 2011).
The source made the active and inactive calls. The rule behind the calls is not given here.

Legend:
[1] = molecular target: T1, Scavenger receptor class B member 1 (Homo sapiens) (UniProt Q8WTV0); assay: Inhibition of human SRB1-mediated Hepatitis C virus genotype 2a entry into human 293T cells by immunoblotting; format: cell-based
T1 sequence (whole entry): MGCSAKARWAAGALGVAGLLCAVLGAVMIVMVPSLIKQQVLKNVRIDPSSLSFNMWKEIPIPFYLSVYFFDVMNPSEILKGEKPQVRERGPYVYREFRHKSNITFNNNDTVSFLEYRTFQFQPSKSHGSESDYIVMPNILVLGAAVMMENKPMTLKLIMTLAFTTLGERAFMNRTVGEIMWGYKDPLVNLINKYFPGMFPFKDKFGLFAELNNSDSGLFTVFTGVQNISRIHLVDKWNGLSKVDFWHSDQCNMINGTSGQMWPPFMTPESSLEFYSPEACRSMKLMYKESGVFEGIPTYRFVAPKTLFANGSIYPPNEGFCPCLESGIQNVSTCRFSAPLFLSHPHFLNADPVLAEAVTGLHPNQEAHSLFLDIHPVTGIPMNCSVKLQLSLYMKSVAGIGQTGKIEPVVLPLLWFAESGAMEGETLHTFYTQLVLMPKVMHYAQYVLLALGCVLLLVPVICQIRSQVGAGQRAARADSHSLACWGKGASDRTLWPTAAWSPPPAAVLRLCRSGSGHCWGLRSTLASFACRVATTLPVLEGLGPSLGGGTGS

[2] = system: Hepatitis C virus; assay: Antiviral activity against chronic Hepatitis C virus type 2a infected in human HuH7 cells by Renilla luciferase reporter gene assay; format: functional, organism-based, Hepacivirus hominis; conditions: genotype 2a, Huh-7
[3] = system: Plasma; assay: Drug metabolism in rat plasma assessed as plasma esterase-mediated formation of 9-(3-(4,6-dimethoxypyrimidin-2-ylamino)propyl-2,3,4,9-tetrahydro-1H-carbazole-6-carboxylic acid by LC-MS analysis; format: ADME, cell-free
[4] = AUC (all) in rat at 2 mg/kg, iv and 20 mg/kg, po; format: ADME, organism-based; conditions: plasma
[5] = Clearance in rat at 2 mg/kg, iv and 20 mg/kg, po; format: ADME, organism-based; conditions: in vivo
[6] = Apparent volume of distribution in rat at 2 mg/kg, iv and 20 mg/kg, po; format: ADME, organism-based; conditions: in vivo, read-out: Vz
[7] = system: Plasma; assay: Metabolic stability in rat plasma; format: ADME, cell-free
[8] = Oral bioavailability in rat at 20 mg/kg; format: ADME, organism-based; conditions: in vivo
[9] = Half life in rat at 2 mg/kg, iv and 20 mg/kg, po; format: ADME, organism-based; conditions: in vivo
[10] = Cmax in rat at 2 mg/kg, iv and 20 mg/kg, po; format: ADME, organism-based; conditions: in vivo

Row | Compound | IC50 [2] | also measured
1 | COC(=O)c1ccc2c(c1)c1c(n2CCCNc2nc(OC)cc(OC)n2)CCCC1 | 1.5 nM | inhibition [1]: Active; Drug metabolism [3]: Active
2 | COC(=O)c1ccc2c(c1)c1c(n2CCCNS(=O)(=O)c2cc(F)cc(F)c2)CCCC1 | 15 nM | 
3 | COC(=O)c1ccc2c(c1)c1c(n2CCCOc2nc(OC)cc(OC)n2)CCCC1 | 0.6 nM | 
4 | CNC(=O)c1ccc2c(c1)c1c(n2CCCNc2nc(OC)cc(OC)n2)CCCC1 | 10 nM | AUC [4]: 45 ng·h/mL; clearance [5]: 58.2 mL/min/kg; Vd [6]: 1.33 L/kg; inhibition [1]: Active; Stability [7]: Stable; bioavailability [8]: 0.8%; half-life [9]: 28.2 min; Cmax [10]: 51 ng/mL
5 | COC(=O)c1ccc2c(c1)c1c(n2CCCNc2cc(C)nc(Cl)n2)CCCC1 | 30 nM | 
6 | COc1cc(OC)nc(NCCCn2c3c(c4cc(C(=O)OC(C)C)ccc42)CCCC3)n1 | 10 nM | AUC [4]: 896 ng·h/mL; clearance [5]: 71.8 mL/min/kg; Vd [6]: 17.6 L/kg; inhibition [1]: Active; Stability [7]: Stable; bioavailability [8]: 19%; half-life [9]: 74.4 min; Cmax [10]: 547 ng/mL
7 | COC(=O)c1ccc2c(c1)c1c(n2CCCNc2nc(OC)nc(OC)n2)CCCC1 | 15 nM | 
8 | COC(=O)c1ccc2c(c1)c1c(n2CCCN(C)c2nc(OC)cc(OC)n2)CCCC1 | 1.5 nM | 
9 | COC(=O)c1ccc2c(c1)c1c(n2CCCS(=O)(=O)c2ccccc2)CCCC1 | 50 nM | 
10 | COC(=O)c1ccc2c(c1)c1c(n2CCc2nc3cc(C)c(C)cc3[nH]2)CCCC1 | 5 nM | 
11 | COC(=O)c1ccc2c(c1)c1c(n2CC2CCN(c3nc(OC)cc(OC)n3)CC2)CCCC1 | 15 nM | 
12 | COC(=O)c1ccc2c(c1)c1c(n2CCc2nc3ccccc3[nH]2)CCCC1 | 5 nM | 
13 | COC(=O)c1ccc2c(c1)c1c(n2CC2CCCN(c3nc(OC)cc(OC)n3)C2)CCCC1 (stereo not given) | 50 nM | 
14 | COC(=O)c1ccc2c(c1)c1c(n2CCCCNc2nc(OC)cc(OC)n2)CCCC1 | 30 nM | 
15 | COc1cc(OC)nc(NCCCn2c3c(c4cc(C(=O)O)ccc42)CCCC3)n1 |  | inhibition [1]: inactive; Activity ([2]; Hepacivirus hominis): inactive
16 | CCN(CC)C(=O)c1ccc2c(c1)c1c(n2CCCNc2nc(OC)cc(OC)n2)CCCC1 | 50 nM | Stability [7]: Stable
17 | COC(=O)c1ccc2c(c1)c1c(n2CCCOc2cc(Cl)nc(C)n2)CCCC1 | 1.5 nM | 
18 | COC(=O)c1ccc2c(c1)c1c(n2CCCNc2nc(C)cc(C(=O)OC)n2)CCCC1 | 30 nM | 
19 | CCc1cc(CC)nc(OCCCn2c3c(c4cc(C(=O)OC)ccc42)CCCC3)n1 | 1.5 nM | 
20 | COc1cc(OC)nc(NCCCn2c3c(c4cc(C(=O)NC(C)C)ccc42)CCCC3)n1 | 150 nM | Stability [7]: Stable
21 | COc1cc(OC)nc(NCCCn2c3c(c4cc(C(=O)N(C)C)ccc42)CCCC3)n1 | 30 nM | AUC [4]: 41 ng·h/mL; clearance [5]: 45 mL/min/kg; Vd [6]: 2.05 L/kg; inhibition [1]: Active; Stability [7]: Stable; bioavailability [8]: 0.6%; half-life [9]: 33 min; Cmax [10]: 51 ng/mL
22 | COC(=O)c1ccc2c(c1)c1c(n2C2CCN(c3nc(OC)cc(OC)n3)CC2)CCCC1 | 300 nM | 
23 | COC(=O)c1ccc2c(c1)c1c(n2CCCOc2nc(C)cc(C(F)(F)F)n2)CCCC1 | 5 nM | 

More lines, main results first:

Row | IC50 [2] | Compound | also measured
24 | 5 nM | COC(=O)c1ccc2c(c1)c1c(n2CCCS(=O)(=O)N(C)C)CCCC1 | 
25 | 50 nM | COC(=O)c1ccc2c(c1)c1c(n2CCCn2cnc3ncncc32)CCCC1 | 
26 | 15 nM | COC(=O)c1ccc2c(c1)c1c(n2CCCNc2nccc(OC)n2)CCCC1 | 
27 | 300 nM | COC(=O)c1ccc2c(c1)c1c(n2CCCC(=O)N(C)C)CCCC1 | 
28 | 50 nM | COC(=O)c1ccc2c(c1)c1c(n2CCCNS(=O)(=O)C(C)C)CCCC1 | 
29 | 25 nM | COC(=O)c1ccc2c(c1)c1c(n2CCCN2C[C@@H](C)O[C@@H](C)C2)CCCC1 | 
30 | 15 nM | COC(=O)c1ccc2c(c1)c1c(n2CCCS(=O)(=O)N2CCC2)CCCC1 | 
31 | 50 nM | COC(=O)c1ccc2c(c1)c1c(n2CCCNc2ncccn2)CCCC1 | 
32 | > 1000 nM | COC(=O)c1ccc2c(c1)c1c(n2CCS(=O)(=O)N(C)C)CCCC1 | 
33 | 40 nM | COC(=O)c1ccc2c(c1)c1c(n2CCCN2C[C@@H](C)N[C@@H](C)C2)CCCC1 | 
34 | 15 nM | COC(=O)c1ccc2c(c1)c1c(n2CCCS(=O)(=O)N2CCOCC2)CCCC1 | 
35 | 170 nM | COC(=O)c1ccc2c(c1)c1c(n2CCCn2ccnc2)CCCC1 | 
36 | 50 nM | COC(=O)c1ccc2c(c1)c1c(n2CCCN2CCCC(C(=O)N(C)C)C2)CCCC1 (stereo not given) | 
37 | 65 nM | COC(=O)c1ccc2c(c1)c1c(n2CCCN2CCNC(=O)C2)CCCC1 | 
38 | 310 nM | COC(=O)c1ccc2c(c1)c1c(n2CCCn2cncc2C)CCCC1 | 
39 | 30 nM | COC(=O)c1ccc2c(c1)c1c(n2CCCS(=O)(=O)N2CCCCC2)CCCC1 | 
40 | 150 nM | COC(=O)c1ccc2c(c1)c1c(n2CCCS(=O)(=O)N2C[C@@H](C)O[C@@H](C)C2)CCCC1 | 
41 | 150 nM | COC(=O)c1ccc2c(c1)c1c(n2CCCN2CCOCC2)CCCC1 | 
